outcome, IC50 and inhibition data for 18 compounds are collected here from PubChem BioAssay AID624129 (Sanford-Burnham Center for Chemical Genomics, 2012).

Molecules are shown by their SMILES. The source made the active and inactive calls. How the calls were made is not given here.

The assay has as its target C-X-C chemokine receptor type 6 (Homo sapiens) (UniProt O00574). The assay is described as follows: CXCR6 receptor antagonists, dose response, cell-based, beta-arrestin, DiscoveRx, APJ panel, uHTS hits (AID 624129). As to conditions: CXCR6 beta-arrestin (DiscoveRx) antagonist cell assay; for outcome: CXCR6, dose range 1; for inhibition: CXCR6, run 2, dose range 1, at 79 µM (top of the series).

[1] abbreviates: CXCR6, dose range 1, mean IC50 across replicates.

C-X-C chemokine receptor type 6 (Homo sapiens), sequence (O00574 whole entry, looked up): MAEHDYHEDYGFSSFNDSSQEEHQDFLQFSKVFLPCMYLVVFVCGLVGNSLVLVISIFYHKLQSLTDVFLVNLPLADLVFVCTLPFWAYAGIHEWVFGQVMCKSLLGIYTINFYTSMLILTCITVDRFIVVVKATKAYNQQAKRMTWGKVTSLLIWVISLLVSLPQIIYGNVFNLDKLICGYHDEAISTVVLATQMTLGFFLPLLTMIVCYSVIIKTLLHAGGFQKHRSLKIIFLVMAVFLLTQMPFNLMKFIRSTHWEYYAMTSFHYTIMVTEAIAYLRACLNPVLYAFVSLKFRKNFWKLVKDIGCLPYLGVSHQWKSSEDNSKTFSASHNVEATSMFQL

Broadly, the IC50 is the concentration needed to halve the response being measured. A higher IC50 goes with a need for much substance. For orientation: inhibition means the relative decrease from the control value, in per cent. Regarding `Cc1cc(O)ccc1NC(=S)NC(=O)c1cncc(Br)c1`, the outcome was inactive and the inhibition came out at 68.1%. Under setting [1], this compound had an IC50 of 16.3 µM. The compound further yielded an IC50 (CXCR6, run 1, dose range 2) of 17.3 µM. Besides, for the setting “CXCR6, run 2, dose range 2”, the IC50 is 15.4 µM.

`COc1cccc(C(=O)NC(=S)N2CCN(c3ccc(C(F)(F)F)cc3[N+](=O)[O-])CC2)c1`: the outcome was inactive and the inhibition stood at 74.3%. The compound further came in with an IC50 under setting [1] of 13.5 µM. This compound also gave an IC50 (CXCR6, run 1, dose range 2) of 13.1 µM. In addition, under “CXCR6, run 2, dose range 2”, the IC50 was 14 µM.

`CCC(=O)OCCNc1cc(SCCC(=O)OC)c2nonc2c1[N+](=O)[O-]`: the result was inactive and the inhibition was 108%. Also, the IC50 under setting [1] was found to be 22.5 µM. Also, the IC50 (CXCR6, run 1, dose range 2) is 21.5 µM. Further, where the note is “CXCR6, run 2, dose range 2”, the IC50 was 23.5 µM.

Take `O=C(N/N=C/c1ccc([N+](=O)[O-])o1)c1sc2ccccc2c1Cl`: the outcome was inactive and the inhibition came out at 97%. This compound had a half-maximal inhibitory concentration (IC50) under setting [1] of 19.5 µM. In addition, the IC50 (CXCR6, run 1, dose range 2) amounted to 19.2 µM. Moreover, the IC50 (CXCR6, run 2, dose range 2) is 19.9 µM.

As to `CCOC(=O)C1CCCN(c2c(C(=O)c3ccccc3)cnc3ccc(OC)cc23)C1` (stereo not given), the result was inactive and the inhibition amounted to 99.5%. The same compound showed an IC50 under setting [1] of 14.4 µM. The compound also returned an IC50 (CXCR6, run 1, dose range 2) of 17.9 µM. In addition, for the setting “CXCR6, run 2, dose range 2”, the IC50 came to 10.9 µM.

Turning to `O=C(NCc1ccc2c(c1)OCO2)c1nc(S(=O)(=O)Cc2ccccc2F)ncc1Cl`, the outcome was inactive and the inhibition stood at 111%. Further, the IC50 under setting [1] was 16.3 µM. The IC50 (CXCR6, run 1, dose range 2) was found to be 15.6 µM. Besides, the IC50 (CXCR6, run 2, dose range 2) was 17 µM.

As to `COC(=O)c1cc([N+](=O)[O-])c(-n2cncn2)c([N+](=O)[O-])c1`, the outcome was inactive and the inhibition was found to be 113%. Also, the IC50 under setting [1] was determined as 16.2 µM. This compound also registered an IC50 (CXCR6, run 1, dose range 2) of 13.9 µM. The IC50 (CXCR6, run 2, dose range 2) was 18.4 µM.

`CCc1nnc(NS(=O)(=O)c2ccc(Nc3ccc([N+](=O)[O-])c4nonc34)cc2)s1`: the result was inactive and the inhibition is 92.2%. For the same compound, the IC50 under setting [1] is 34.1 µM. The IC50 (CXCR6, run 1, dose range 2) is 29.8 µM. Besides, where the note is “CXCR6, run 2, dose range 2”, the IC50 was 38.4 µM.

For `O=C(Nc1ccc(Oc2ccccc2)cc1)c1csc([C@@H]2O[C@H](CO)[C@H](O)[C@H](O)[C@H]2O)n1`, the result was inactive and the inhibition was found to be 57.4%. The compound also gave an IC50 under setting [1] of 40.1 µM. The compound further came in with an IC50 (CXCR6, run 1, dose range 2) of 40.1 µM. Further, the IC50 (CXCR6, run 2, dose range 2) is greater than 79 µM.

On to `CC(=NO)C1CCC2C3CCC4=CC(=NO)CCC4(C)C3C(O)CC12C` (stereo not given), for which the outcome was inactive and the inhibition amounted to 75.2%. In addition, the IC50 under setting [1] was found to be 28.9 µM. The compound also came in with an IC50 (CXCR6, run 1, dose range 2) of 12.5 µM. In addition, for the setting “CXCR6, run 2, dose range 2”, the IC50 was found to be 45.4 µM.

As to `O=C(NC(=S)Nc1ccccc1O)c1cncc(Br)c1`, the outcome was inactive and the inhibition came to 70.2%. The same compound yielded an IC50 under setting [1] of 28.4 µM. Besides, under “CXCR6, run 1, dose range 2”, the half-maximal inhibitory concentration (IC50) was determined as 24.7 µM. For the setting “CXCR6, run 2, dose range 2”, this compound returned an IC50 of 32 µM.

`O=C(COc1ccc(Br)cc1Cl)NC(=S)N1CCc2ccccc21`: the result was inactive and the inhibition is 94.9%. Also, the IC50 under setting [1] was found to be 17.3 µM. This compound displayed an IC50 (CXCR6, run 1, dose range 2) of 14.8 µM. Besides, the IC50 (CXCR6, run 2, dose range 2) worked out at 19.7 µM.

With `COc1ccc(-c2c(C(=O)c3ccccc3)[nH]c(N)c2C(=O)c2ccc(Br)cc2)cc1OC`, the result was inactive and the inhibition amounted to 86.6%. This compound also yielded an IC50 under setting [1] of 17.4 µM. This compound also came in with an IC50 (CXCR6, run 1, dose range 2) of 16.4 µM. The IC50 (CXCR6, run 2, dose range 2) amounted to 18.4 µM.

On to `Cc1c(N=Nc2c(O)[nH]c(=S)[nH]c2=O)c(=O)n(-c2ccccc2)n1C`, for which the outcome was inactive and the inhibition was 107%. Moreover, under setting [1], the IC50 came out at 22.5 µM. Besides, where the note is “CXCR6, run 1, dose range 2”, the IC50 came to 16.4 µM. For the same compound, the IC50 (CXCR6, run 2, dose range 2) turned out to be 28.6 µM.

On to `O=C(C=Cc1ccccn1)c1ccccc1O`, for which the result was inactive and the inhibition was 108%. This compound also displayed an IC50 under setting [1] of 22.4 µM. In addition, where the note is “CXCR6, run 1, dose range 2”, the IC50 was 13.8 µM. This compound showed an IC50 (CXCR6, run 2, dose range 2) of 31 µM.

On to `CC1=CC(C)(C)N2C(=O)C(=Nc3ccc(O)cc3)c3cccc1c32`, for which the result was inactive and the inhibition came to 84%. The IC50 under setting [1] was found to be 57.9 µM. The compound further came in with an IC50 (CXCR6, run 1, dose range 2) of 77.4 µM. Further, the IC50 (CXCR6, run 2, dose range 2) was found to be 38.4 µM.

Regarding `COc1ccc2nc(-n3c(O)c(C4=c5ccccc5=NC4=O)[nH]c3=S)sc2c1`, the outcome was inactive and the inhibition is 109%. Moreover, the IC50 under setting [1] came out at 30.4 µM. The compound further registered an IC50 (CXCR6, run 1, dose range 2) of 26.5 µM. Moreover, under “CXCR6, run 2, dose range 2”, the IC50 amounted to 34.3 µM.

Turning to `COc1cccc(-c2nnc(NC(=O)c3ccc(Cl)s3)o2)c1`, the result was inactive and the inhibition turned out to be 67.6%. Besides, the IC50 under setting [1] is 14.3 µM. The compound also registered an IC50 (CXCR6, run 1, dose range 2) of 12.5 µM. Where the note is “CXCR6, run 2, dose range 2”, the IC50 was 16.1 µM.
